Reference: PubChem BioAssay (NCI)
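48-hour exposure; five concentrations; linearly interpolated endpoints. GI50: concentration for 50% inhibition of growth. TGI: total growth inhibition.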

How the values were obtained:
Assay in all cases: inhibition of tumour cell growth, NCI panel, 48 h
MDA-MB-231 breast = system: MDA-MB-231 breast
OVCAR-3 ovarian = system: OVCAR-3 ovarian
M14 melanoma = system: M14 melanoma
SK-MEL-28 melanoma = system: SK-MEL-28 melanoma
SNB-75 CNS = system: SNB-75 CNS
U251 CNS = system: U251 CNS
NCI/ADR-RES ovarian = system: NCI/ADR-RES ovarian
HCT-116 colon = system: HCT-116 colon
CAKI-1 renal = system: CAKI-1 renal
BT-549 breast = system: BT-549 breast
COLO 205 colon = system: COLO 205 colon
MOLT-4 leukemia = system: MOLT-4 leukemia
OVCAR-5 ovarian = system: OVCAR-5 ovarian
MALME-3M melanoma = system: MALME-3M melanoma
SF-268 CNS = system: SF-268 CNS
RPMI-8226 leukemia = system: RPMI-8226 leukemia
IGROV1 ovarian = system: IGROV1 ovarian
ACHN renal = system: ACHN renal
HCT-15 colon = system: HCT-15 colon
KM12 colon = system: KM12 colon
MCF7 breast = system: MCF7 breast
A549 NSCLC = system: A549 NSCLC
UACC-62 melanoma = system: UACC-62 melanoma
T-47D breast = system: T-47D breast
EKVX NSCLC = system: EKVX NSCLC
PC-3 prostate = system: PC-3 prostate
HOP-62 NSCLC = system: HOP-62 NSCLC
NCI-H23 lung = system: NCI-H23 lung

`Nc1c(C(=O)c2ccccc2)sc2nc(-c3cccs3)ccc12` was tested, and the GI50 (MDA-MB-231 breast) was 1.23 µM, the TGI (MDA-MB-231 breast) was 5.7 µM and the GI50 (OVCAR-3 ovarian) was 0.0468 µM. The TGI (OVCAR-3 ovarian) was 1.05 µM, the GI50 (M14 melanoma) was 0.0924 µM and the TGI (M14 melanoma) was 13.3 µM. For the same molecule, the GI50 (SK-MEL-28 melanoma) was 1.49 µM, the TGI (SK-MEL-28 melanoma) was over 100 µM and the GI50 (SNB-75 CNS) was 0.187 µM. The TGI (SNB-75 CNS) was 1.42 µM, the GI50 (U251 CNS) was 0.281 µM and the TGI (U251 CNS) was 14.1 µM. For the same molecule, the GI50 (NCI/ADR-RES ovarian) was 0.0537 µM, the TGI (NCI/ADR-RES ovarian) was 1.81 µM and the GI50 (HCT-116 colon) was 0.0533 µM. The TGI (HCT-116 colon) was 1.96 µM, the GI50 (CAKI-1 renal) was 0.564 µM and the TGI (CAKI-1 renal) was 20.1 µM. For the same molecule, the GI50 (BT-549 breast) was 0.332 µM, the TGI (BT-549 breast) was 11.6 µM and the GI50 (COLO 205 colon) was 0.426 µM. It also gave a TGI (COLO 205 colon) of 4.65 µM, a GI50 (MOLT-4 leukemia) of 0.0504 µM and a TGI (MOLT-4 leukemia) of 1.12 µM. The GI50 (OVCAR-5 ovarian) was 1.8 µM, the TGI (OVCAR-5 ovarian) was 14.5 µM and the GI50 (MALME-3M melanoma) was 1.19 µM. For the same molecule, the TGI (MALME-3M melanoma) was 12.6 µM, the GI50 (SF-268 CNS) was 0.664 µM and the TGI (SF-268 CNS) was 15.5 µM. It also gave a GI50 (RPMI-8226 leukemia) of 0.513 µM, a TGI (RPMI-8226 leukemia) of 17.6 µM and a GI50 (IGROV1 ovarian) of 1.21 µM. It also gave a TGI (IGROV1 ovarian) of 18.8 µM, a GI50 (ACHN renal) of 0.863 µM and a TGI (ACHN renal) of 13.3 µM. For the same molecule, the GI50 (HCT-15 colon) was 0.0552 µM, the TGI (HCT-15 colon) was 10.4 µM and the GI50 (KM12 colon) was 0.103 µM. The TGI (KM12 colon) was 5.6 µM, the GI50 (MCF7 breast) was 0.0878 µM and the TGI (MCF7 breast) was 4.6 µM. It also gave a GI50 (A549 NSCLC) of 0.492 µM, a TGI (A549 NSCLC) of 4.8 µM and a GI50 (UACC-62 melanoma) of 0.0788 µM. It also gave a TGI (UACC-62 melanoma) of 10.4 µM, a GI50 (T-47D breast) of 0.335 µM and a TGI (T-47D breast) of 12.2 µM. It also gave a GI50 (EKVX NSCLC) of 0.285 µM, a TGI (EKVX NSCLC) of 17.5 µM and a GI50 (PC-3 prostate) of 0.176 µM. For the same molecule, the TGI (PC-3 prostate) was 10.1 µM, the GI50 (HOP-62 NSCLC) was 0.276 µM and the TGI (HOP-62 NSCLC) was 17.8 µM. The GI50 (NCI-H23 lung) was 0.331 µM and the TGI (NCI-H23 lung) was 10.1 µM.
